Test results reported in patent US8987250B2 (Gilead Sciences, Inc., priority 2012, dated 2015).

system: HIV-IIIb; experiment: Test A: Antiviral Assay in MT4 Cells; type: cell-based; details: Human immunodeficiency virus 1, IIIB, MT4, 120 h, Table 1; MT-4 cells infected with HIV-IIIb, 5 days of incubation, CellTiter-Glo; read-out: EC50
Outline: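 Read-out: CellTiter-Glo chemiluminescence after 5-day incubation at 37 °C. Compounds tested as 3-fold serial dilutions (10 concentrations, quadruplicate) in RPMI 1640 with 10% FBS, on MT-4 cells pre-infected at 37 °C with HIV-IIIb at 0.004 m.o.i.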

EC50 | Compound
65 nM | Cc1cc2nc(-c3ccnc(-c4cnc(C5CCC5)nc4)c3)sc2c(-c2ccc(Cl)cc2)c1[C@H](OC(C)(C)C)C(=O)O [Compound 138]
153 nM | Cc1cc2nc(-c3ccnc(-c4cncc(C(N)=O)c4)c3)sc2c(-c2ccc(Cl)cc2)c1[C@H](OC(C)(C)C)C(=O)O [Compound 149]
91 nM | Cc1cc2nc(-c3cccc(-c4cnn(Cc5ccccc5)c4)c3)sc2c(-c2ccc(Cl)cc2)c1[C@H](OC(C)(C)C)C(=O)O [Compound 150]

Compound | EC50
Cc1cc2nc(-c3ccnc(-c4ccc5cnn(C)c5c4)c3)sc2c(-c2ccc(Cl)cc2)c1[C@H](OC(C)(C)C)C(=O)O [Compound 108, (S)-2-tert-butoxy-2-(7-(4-chlorophenyl)-5-methyl-2-(2-(1-methyl-1H-indazol-6-yl)pyridin-4-yl)benzo[d]thiazol-6-yl)acetic acid] | 33 nM

same assay, conditions: Human immunodeficiency virus 1, IIIB, MT4, 120 h, Table 2; MT-4 cells infected with HIV-IIIb, 5 days of incubation, CellTiter-Glo; read-out: EC50

Compound | EC50
Cc1ccc(C2(C)CN(c3nc4cc(C)c([C@H](OC(C)(C)C)C(=O)O)c(-c5ccc(Cl)cc5)c4s3)CCO2)cc1 (stereo partly drawn) [Compound 323, (2S)-2-tert-butoxy-2-(7-(4-chlorophenyl)-5-methyl-2-(2-methyl-2-p-tolylmorpholino)benzo[d]thiazol-6-yl)acetic acid] | 384 nM
Cc1cc2nc(-c3ccc4nc(C)n(C5CNC5)c4c3)sc2c(-c2ccc(Cl)cc2)c1[C@H](OC(C)(C)C)C(=O)O [Compound 298, (S)-2-(2-(1-(azetidin-3-yl)-2-methyl-1H-benzo[d]imidazol-6-yl)-7-(4-chlorophenyl)-5-methylbenzo[d]thiazol-6-yl)-2-tert-butoxyacetic acid] | 181 nM
Cc1cc2nc(-c3cncc(N4CCN(C)CC4)n3)sc2c(-c2ccc(Cl)cc2)c1[C@H](OC(C)(C)C)C(=O)O [Compound 282, (S)-2-tert-butoxy-2-(7-(4-chlorophenyl)-5-methyl-2-(6-(4-methylpiperazin-1-yl)pyrazin-2-yl)benzo[d]thiazol-6-yl)acetic acid] | 3 nM
Cc1cc2nc(-c3ccnc(C4CCOCC4)n3)sc2c(-c2ccc(Cl)cc2)c1[C@H](OC(C)(C)C)C(=O)O [Compound 340] | 9 nM
CNc1ccc2cc(-c3cc(-c4nc5cc(C)c([C@H](OC(C)(C)C)C(=O)O)c(-c6ccc(Cl)cc6)c5s4)ccn3)ccc2n1 [Compound 192, (S)-2-tert-butoxy-2-(7-(4-chlorophenyl)-5-methyl-2-(2-(2-(methylamino)quinolin-6-yl)pyridin-4-yl)benzo[d]thiazol-6-yl)acetic acid] | 12 nM
Cc1cc2nc(-c3ccc4ncn(C5CCN(C)CC5)c4c3)sc2c(-c2ccc(Cl)cc2)c1[C@H](OC(C)(C)C)C(=O)O [Compound 414] | 32 nM
Cc1cc(C)n(-c2cccc(-c3nc4cc(C)c([C@H](OC(C)(C)C)C(=O)O)c(-c5ccc(Cl)cc5)c4s3)c2)n1 [Compound 272, (S)-2-tert-butoxy-2-(7-(4-chlorophenyl)-2-(3-(3,5-dimethyl-1H-pyrazol-1-yl)phenyl)-5-methylbenzo[d]thiazol-6-yl)acetic acid] | 78 nM
Cc1cc2nc(-c3ccc4c(c3)ncn4C3CCN(C)CC3)sc2c(-c2ccc(Cl)cc2)c1[C@H](OC(C)(C)C)C(=O)O [Compound 295, (S)-2-(tert-butoxy)-2-(7-(4-chlorophenyl)-5-methyl-2-(1-(1-methylpiperidin-4-yl)-1H-benzo[d]imidazol-5-yl)benzo[d]thiazol-6-yl)acetic acid] | 34 nM
Cc1cc2nc(-c3ccc4c(c3)nc(C)n4C3CC3)sc2c(-c2ccc(Cl)cc2)c1[C@H](OC(C)(C)C)C(=O)O [Compound 409] | 10 nM
Cc1cc2nc(-c3ccc4c(c3)c(-c3ccncc3)nn4C)sc2c(-c2ccc(Cl)cc2)c1[C@H](OC(C)(C)C)C(=O)O [Compound 213, (S)-2-tert-butoxy-2-(7-(4-chlorophenyl)-5-methyl-2-(1-methyl-3-(pyridin-4-yl)-1H-indazol-5-yl)benzo[d]thiazol-6-yl)acetic acid] | 4 nM
Cc1cc2nc(-c3ccnc(-c4ccc5c(cnn5C(F)F)c4)c3)sc2c(-c2ccc(Cl)cc2)c1[C@H](OC(C)(C)C)C(=O)O [Compound 177, (S)-2-tert-butoxy-2-(7-(4-chlorophenyl)-2-(2-(1-(difluoromethyl)-1H-indazol-5-yl)pyridin-4-yl)-5-methylbenzo[d]thiazol-6-yl)acetic acid] | 39 nM
CCn1ncc2cc(-c3nc4cc(C)c([C@H](OC(C)(C)C)C(=O)O)c(-c5ccc(Cl)cc5)c4s3)ccc21 [Compound 351] | 21 nM
CC(=O)N(C)c1ccc(-c2cc(-c3nc4cc(C)c([C@H](OC(C)(C)C)C(=O)O)c(-c5ccc(Cl)cc5)c4s3)ccn2)cc1 [Compound 499, (S)-2-(tert-butoxy)-2-(7-(4-chlorophenyl)-5-methyl-2-(2-(4-(N-methylacetamido)phenyl)pyridin-4-yl)benzo[d]thiazol-6-yl)acetic acid] | 12 nM
Cc1cc2nc(-c3ccn4nnc(C)c4c3)sc2c(-c2ccc(Cl)cc2)c1[C@H](OC(C)(C)C)C(=O)O [Compound 318, (S)-2-tert-butoxy-2-(7-(4-chlorophenyl)-5-methyl-2-(3-methyl-[1,2,3]triazolo[1,5-a]pyridin-5-yl)benzo[d]thiazol-6-yl)acetic acid] | 10 nM
Cc1cc2nc(-c3ccnc(-c4ccc[nH]c4=O)c3)sc2c(-c2ccc(Cl)cc2)c1[C@H](OC(C)(C)C)C(=O)O [Compound 232, (S)-2-tert-butoxy-2-(7-(4-chlorophenyl)-5-methyl-2-(2-(2-oxo-1,2-dihydropyridin-3-yl)pyridin-4-yl)benzo[d]thiazol-6-yl)acetic acid] | 86 nM
Cc1cc2nc(-c3ccnc(-c4ccc5c(c4)c(N)nn5C)c3)sc2c(-c2ccc(Cl)cc2)c1[C@H](OC(C)(C)C)C(=O)O [Compound 383] | 18 nM
Cc1cc2nc(N3CCNC(c4ccc5c(cnn5C)c4)C3=O)sc2c(-c2ccc(Cl)cc2)c1[C@H](OC(C)(C)C)C(=O)O (stereo partly drawn) [Compound 275, (2S)-2-tert-butoxy-2-(7-(4-chlorophenyl)-5-methyl-2-(3-(1-methyl-1H-indazol-5-yl)-2-oxopiperazin-1-yl)benzo[d]thiazol-6-yl)acetic acid] | 21 nM
CCn1cc2cc(-c3cc(-c4nc5cc(C)c([C@H](OC(C)(C)C)C(=O)O)c(-c6ccc(Cl)cc6)c5s4)ccn3)ccc2n1 [Compound 173, (S)-2-tert-butoxy-2-(7-(4-chlorophenyl)-2-(2-(2-ethyl-2H-indazol-5-yl)pyridin-4-yl)-5-methylbenzo[d]thiazol-6-yl)acetic acid] | 11 nM
Cc1cc2nc(-c3ccc4c(c3)c(C(C)C)nn4C)sc2c(-c2ccc(Cl)cc2)c1[C@H](OC(C)(C)C)C(=O)O [Compound 330, (S)-2-tert-butoxy-2-(7-(4-chlorophenyl)-2-(3-isopropyl-1-methyl-1H-indazol-5-yl)-5-methylbenzo[d]thiazol-6-yl)acetic acid] | 19 nM
Cc1cc2nc(-c3ccc4c(n3)c(-c3cccnc3)nn4C)sc2c(-c2ccc(Cl)cc2)c1[C@H](OC(C)(C)C)C(=O)O [Compound 496, (S)-2-tert-butoxy-2-(7-(4-chlorophenyl)-5-methyl-2-(1-methyl-3-(pyridin-3-yl)-1H-pyrazolo[4,3-b]pyridin-5-yl)benzo[d]thiazol-6-yl)acetic acid] | 5 nM
Cc1cc2nc(-c3ccnc(-c4cccc5c4OCC(=O)N5C)c3)sc2c(-c2ccc(Cl)cc2)c1[C@H](OC(C)(C)C)C(=O)O [Compound 390] | 9 nM
Cc1cc2nc(N3Cc4ccccc4C(F)(F)C3)sc2c(-c2ccc(Cl)cc2)c1[C@H](OC(C)(C)C)C(=O)O [Compound 436] | 67 nM
Cc1cc2nc(-c3ccnc(-c4ccc5c(=O)n(C)n(C)c5c4)c3)sc2c(-c2ccc(Cl)cc2)c1[C@H](OC(C)(C)C)C(=O)O [Compound 188, (S)-2-tert-butoxy-2-(7-(4-chlorophenyl)-2-(2-(1,2-dimethyl-3-oxo-2,3-dihydro-1H-indazol-6-yl)pyridin-4-yl)-5-methylbenzo[d]thiazol-6-yl)acetic acid] | 12 nM
Cc1cc2c(c(-c3ccc(Cl)cc3)c1[C@H](OC(C)(C)C)C(=O)O)n(C1CCN(C)CC1)c(=O)n2C [Compound 181, (S)-2-tert-butoxy-2-(4-(4-chlorophenyl)-1,6-dimethyl-3-(1-methylpiperidin-4-yl)-2-oxo-2,3-dihydro-1H-benzo[d]imidazol-5-yl)acetic acid] | 27 nM
Cc1cc2nc(-c3ccnc(-n4ccc5ccncc5c4=O)c3)sc2c(-c2ccc(Cl)cc2)c1[C@H](OC(C)(C)C)C(=O)O [Compound 458] | 5 nM
Cc1cc2nc(-c3cccc(-n4ccc(=O)[nH]c4=O)c3)sc2c(-c2ccc(Cl)cc2)c1[C@H](OC(C)(C)C)C(=O)O [Compound 229, (S)-2-tert-butoxy-2-(7-(4-chlorophenyl)-2-(3-(2,4-dioxo-3,4-dihydropyrimidin-1(2H)-yl)phenyl)-5-methylbenzo[d]thiazol-6-yl)acetic acid] | 1740 nM
Cc1ccc2c(c1)CCN2c1nc2cc(C)c([C@H](OC(C)(C)C)C(=O)O)c(-c3ccc(Cl)cc3)c2s1 [Compound 243, (S)-2-tert-butoxy-2-(7-(4-chlorophenyl)-5-methyl-2-(5-methylindolin-1-yl)benzo[d]thiazol-6-yl)acetic acid] | 424 nM

same assay, conditions: Table 2; MT-4 cells infected with HIV-IIIb, 5 days of incubation, CellTiter-Glo; read-out: EC50

Compound | EC50
Cc1cc2nc(-c3ccnc(-c4cnc5c(c4)c(C)cn5C)c3)sc2c(-c2ccc(Cl)cc2)c1[C@H](OC(C)(C)C)C(=O)O [Compound 199, (S)-2-tert-butoxy-2-(7-(4-chlorophenyl)-2-(2-(1,3-dimethyl-1H-pyrrolo[2,3-b]pyridin-5-yl)pyridine-4-yl)-5-methylbenzo[d]thiazol-6-yl)acetic acid] | 95 nM
